The values that follow come from patent US20240208962A1, “MICROBIOCIDAL QUINOLINE/QUINOXALINE BENZOTHIAZINE DERIVATIVES” (SYNGENTA CROP PROTECTION AG, priority 2021, published 2024).

Structures are written as SMILES. Some results are limits rather than exact numbers.

Data set [1] concerns Colletotrichum lagenarium. The experiment in a line: Comparative: Colletotrichum lagenarium / cucumber / preventative (Anthracnose). The data set is classed as in vivo. The settings on record: rate of application 200 ppm, Colletotrichum lagenarium on cucumber cv. Wisconsin, emulsifiable concentrate, 6-8 days after application.
The test system of data set [2] is Mycosphaerella graminicola (Septoria tritici). The data set can be described thus: Comparative: Mycosphaerella graminicola (Septoria tritici) on wheat / preventative, emulsifiable concentrate. The data set is classed as in vivo. Conditions: rate of application 60 ppm, Mycosphaerella graminicola on wheat cv. Riband, 16 to 19 days after application.
For the next data set, the system named is Botrytis cinerea. The experiment in a line: Comparative: Botrytis cinerea / tomato / preventative. Format: in vivo. The settings on record: rate of application 200 ppm, Botrytis cinerea on tomato, emulsifiable concentrate, 5-6 days after application.
The next data set deals with Venturia inaequalis. The experiment in a line: Comparative: Venturia inaequalis / apple / preventative (Scab on apple). The data set is classed as in vivo. The settings on record: rate of application 200 ppm, Venturia inaequalis on apple seedlings, emulsifiable concentrate, 11-13 days after application.
Data set [3] deals with Glomerella lagenarium (Colletotrichum lagenarium). The experiment in a line: Glomerella lagenarium (Colletotrichum lagenarium) / liquid culture (Anthracnose). The data set is classed as cell-based. Conditions: Colletotrichum orbiculare, liquid culture PDB, 3-4 days after application, read-out: control of Glomerella lagenarium (inhibition of growth, photometric).
The subject of data set [4] is Monographella nivalis (Microdochium nivale). The data set can be described thus: Monographella nivalis (Microdochium nivale) / liquid culture (foot rot cereals). The data set is classed as cell-based. Conditions: liquid culture PDB, 4 to 5 days after application, read-out: control of Monographella nivalis (inhibition of growth, photometric).
The subject of data set [5] is Mycosphaerella graminicola (Septoria tritici). The data set can be described thus: Mycosphaerella graminicola (Septoria tritici) on wheat / preventative. Format: in vivo. Conditions: Zymoseptoria tritici, wheat plants cv. Riband, preventative spray, 16 to 19 days after application, read-out: control of Mycosphaerella graminicola compared to untreated control.
For another data set, the system named is Fusarium culmorum. The experiment in a line: microbe, parasite or virus in culture. Format: cell-based. The settings on record: read-out: control of Fusarium culmorum (inhibition of growth, photometric).
The test system of data set [6] is Botryotinia fuckeliana (Botrytis cinerea). The data set can be described thus: Botryotinia fuckeliana (Botrytis cinerea) / liquid culture (Gray mould). The data set is classed as cell-based. Conditions: liquid culture Vogels broth, 3-4 days after application, read-out: control of Botryotinia fuckeliana (inhibition of growth, photometric).

With `CC1(C)N=C(c2cnc3c(F)cccc3c2)c2cccc(F)c2S1` [Comparative compound A, reference compound], the “Efficacy (% control)” value turned out to be 80 % control in data set [1], 11 % control in data set [2], 95 % control in the data set on Botrytis cinerea and 100 % control with Venturia inaequalis.

The term inhibition denotes the drop in the measured response relative to a control, in per cent. A word on the melting point: it is the temperature of the solid-liquid transition. `Cc1ccc2c(c1F)SC(C)(C)N=C2c1cnc2c(F)cccc2c1` [Compound E.08, 8-fluoro-4-(8-fluoro-3-quinolyl)-2,2,7-trimethyl-1,3-benzothiazine]: the melting point lay within 159 to 161 °C. For the same compound, in data set [3], the inhibition at 20 ppm is ≥ 80%. Further, the inhibition at 20 ppm in data set [4] is ≥ 80%. Besides, the “Efficacy (% control)” value in data set [2] is on record as 89 % control. Besides, the pest or weed control at 60 ppm in data set [5] was ≥ 80%. For the same compound, the inhibition at 20 ppm with Fusarium culmorum was ≥ 80%. Besides, the inhibition at 20 ppm in data set [6] was ≥ 80%. For the same compound, the “Efficacy (% control)” value in the data set with Botrytis cinerea is 97 % control. In the data set on Venturia inaequalis, the “Efficacy (% control)” value is on record as 80 % control.

For `Cc1ccc2c(c1Cl)SC(C)(C)N=C2c1cnc2c(F)cccc2c1` [Compound E.13, 8-chloro-4-(8-fluoro-3-quinolyl)-2,2,7-trimethyl-1,3-benzothiazine], the inhibition at 20 ppm (in [3]; in data set [4]; in the data set with Fusarium culmorum; in [6]) was ≥ 80% in each case. For the same compound, the “Efficacy (% control)” value in data set [2] was 96 % control. The pest or weed control at 60 ppm in data set [5] was ≥ 80%.

In the case of `Cc1cccc2c1SC(C)(C)N=C2c1cnc2c(F)cccc2c1` [Compound E.14, 4-(8-fluoro-3-quinolyl)-2,2,8-trimethyl-1,3-benzothiazine], the inhibition at 20 ppm (in [3]; in data set [4]; with Fusarium culmorum; in [6]) was ≥ 80% each time. In addition, the “Efficacy (% control)” value came out at 97 % control in [1], 83 % control in data set [2], 93 % control in the data set with Botrytis cinerea and 100 % control with Venturia inaequalis. Moreover, the pest or weed control at 60 ppm in data set [5] is ≥ 80%.

Regarding `CC1(C)N=C(c2cnc3c(F)cccc3c2)c2ccc(F)c(F)c2S1` [E.03, 7,8-difluoro-4-(8-fluoro-3-quinolyl)-2,2-dimethyl-1,3-benzothiazine], the inhibition at 20 ppm (in data set [3]; in data set [4]; with Fusarium culmorum; in [6]) was ≥ 80% throughout. In [5], the pest or weed control at 60 ppm is ≥ 80%.

Turning to `CSc1cccc2c1SC(C)(C)N=C2c1cnc2c(F)cccc2c1` [E.04, 4-(8-fluoro-3-quinolyl)-2,2-dimethyl-8-methylsulfanyl-1,3-benzothiazine], the inhibition at 20 ppm (in [3]; in data set [4]; in the data set with Fusarium culmorum; in data set [6]) was ≥ 80% in each case.

For `CC1(C)N=C(c2cnc3c(F)cccc3c2)c2ccc(Cl)c(Cl)c2S1` [E.05, 7,8-dichloro-4-(8-fluoro-3-quinolyl)-2,2-dimethyl-1,3-benzothiazine], the inhibition at 20 ppm (in data set [3]; in data set [4]; with Fusarium culmorum; in data set [6]) was ≥ 80% throughout. Moreover, the pest or weed control at 60 ppm in data set [5] is ≥ 80%.

With `Cc1cccc2c1S[C@](C)(C(F)F)N=C2c1cnc2c(F)cccc2c1` [E.06, (2R)-2-(difluoromethyl)-4-(8-fluoro-3-quinolyl)-2,8-dimethyl-1,3-benzothiazine], the inhibition at 20 ppm (in data set [3]; in data set [4]; in the data set on Fusarium culmorum; in data set [6]) was ≥ 80% throughout.

With `CC1(C(F)F)N=C(c2cnc3c(F)cccc3c2)c2cccc(Cl)c2S1` (centres unmarked) [E.09, 8-chloro-2-(difluoromethyl)-4-(8-fluoro-3-quinolyl)-2-methyl-1,3-benzothiazine], the inhibition at 20 ppm (in [3]; in [4]; in the data set on Fusarium culmorum; in [6]) was ≥ 80% in each case.

Turning to `Cc1ccc2c(c1C#N)SC(C)(C)N=C2c1cnc2c(F)cccc2c1` [E.10, 4-(8-fluoro-3-quinolyl)-2,2,7-trimethyl-1,3-benzothiazine-8-carbonitrile], the inhibition at 20 ppm (in the data set on Fusarium culmorum; in data set [6]) was ≥ 80% throughout.

For the compound `Cc1ccc2c(c1C)SC(C)(C)N=C2c1cnc2c(F)cccc2c1` [E.11, 4-(8-fluoro-3-quinolyl)-2,2,7,8-tetramethyl-1,3-benzothiazine], the inhibition at 20 ppm (in data set [3]; in data set [4]; with Fusarium culmorum; in data set [6]) was ≥ 80% throughout. For the same compound, the pest or weed control at 60 ppm in [5] is ≥ 80%.

As to `Cc1cccc2c1SC(C)(C(F)F)N=C2c1cnc2c(F)cccc2c1` (centres unmarked) [E.15, 2-(difluoromethyl)-4-(8-fluoro-3-quinolyl)-2,8-dimethyl-1,3-benzothiazine], the inhibition at 20 ppm (in [3]; in [4]; with Fusarium culmorum; in data set [6]) was ≥ 80% each time.

On to `Cc1ccc2c(c1F)SC(C)(C)N=C2c1cnc2c(F)c(F)ccc2c1` [E.16, 4-(7,8-difluoro-3-quinolyl)-8-fluoro-2,2,7-trimethyl-1,3-benzothiazine], for which the inhibition at 20 ppm (in data set [4]; in the data set on Fusarium culmorum; in data set [6]) was ≥ 80% each time. The pest or weed control at 60 ppm in data set [5] was ≥ 80%.

In the case of `CC1(C)N=C(c2cnc3c(F)cccc3n2)c2cccc(Cl)c2S1` [E.17, 8-chloro-4-(5-fluoroquinoxalin-2-yl)-2,2-dimethyl-1,3-benzothiazine], the inhibition at 20 ppm (in data set [3]; in data set [4]; in the data set on Fusarium culmorum; in [6]) was ≥ 80% each time.

`CC1(Cc2ccc(Cl)nc2)N=C(c2cnc3c(F)c(F)ccc3c2)c2cccc(Cl)c2S1` (centres unmarked) [E.18, 8-chloro-2-[(6-chloro-3-pyridyl)methyl]-4-(7,8-difluoro-3-quinolyl)-2-methyl-1,3-benzothiazine]: the inhibition at 20 ppm in data set [3], in data set [4] and in data set [6] was ≥ 80% in each case.

Regarding `CC1(Cc2ccc(Cl)nc2)N=C(c2cnc3c(F)cccc3c2)c2cccc(Cl)c2S1` (centres unmarked) [E.19, 8-chloro-2-[(6-chloro-3-pyridyl)methyl]-4-(8-fluoro-3-quinolyl)-2-methyl-1,3-benzothiazine], the inhibition at 20 ppm (in [3]; in data set [4]; in the data set with Fusarium culmorum; in [6]) was ≥ 80% throughout.

On to `Cc1nc2c(F)cccc2cc1C1=NC(C)(C)Sc2c(Cl)cccc21` [E.20, 8-chloro-4-(8-fluoro-2-methyl-3-quinolyl)-2,2-dimethyl-1,3-benzothiazine], for which the melting point lay within 134 to 136 °C. Further, the inhibition at 20 ppm in data set [3] is ≥ 80%. The inhibition at 20 ppm in data set [4] is ≥ 80%. Also, in data set [6], the inhibition at 20 ppm is ≥ 80%.

`Cc1c(Cl)ccc2c1SC(C)(C)N=C2c1cnc2c(F)c(F)ccc2c1` [E.21, 7-chloro-4-(7,8-difluoro-3-quinolyl)-2,2,8-trimethyl-1,3-benzothiazine] gave a melting point of 161 to 163 °C. The inhibition at 20 ppm in [4] is ≥ 80%. Also, the inhibition at 20 ppm in the data set on Fusarium culmorum is ≥ 80%. For the same compound, the inhibition at 20 ppm in data set [6] is ≥ 80%.

Compound `Cc1c(C#N)ccc2c1SC(C)(C)N=C2c1cnc2c(F)c(F)ccc2c1` [E.22, 4-(7,8-difluoro-3-quinolyl)-2,2,8-trimethyl-1,3-benzothiazine-7-carbonitrile] showed a melting point of 216 to 218 °C. For the same compound, in data set [6], the inhibition at 20 ppm is ≥ 80%.

`Cc1c(C#N)ccc2c1SC(C)(C)N=C2c1cnc2c(F)cccc2c1` [E.23, 4-(8-fluoro-3-quinolyl)-2,2,8-trimethyl-1,3-benzothiazine-7-carbonitrile] showed a melting point of 88 to 90 °C. Moreover, in [4], the inhibition at 20 ppm was ≥ 80%. The inhibition at 20 ppm in the data set with Fusarium culmorum was ≥ 80%. For the same compound, the inhibition at 20 ppm in [6] was ≥ 80%.

With `COc1c(Cl)ccc2c1SC(C)(C)N=C2c1cnc2c(F)cccc2c1` [E.24, 7-chloro-4-(8-fluoro-3-quinolyl)-8-methoxy-2,2-dimethyl-1,3-benzothiazine], the inhibition at 20 ppm (in data set [4]; in the data set on Fusarium culmorum; in [6]) was ≥ 80% throughout.

Turning to `Cc1c(Cl)ccc2c1SC(C)(C)N=C2c1cnc2c(F)cccc2c1` [E.25, 7-chloro-4-(8-fluoro-3-quinolyl)-2,2,8-trimethyl-1,3-benzothiazine], the melting point lay within 68 to 70 °C. For the same compound, the inhibition at 20 ppm in [3] was ≥ 80%. Moreover, the pest or weed control at 60 ppm in data set [5] was ≥ 80%. Moreover, the inhibition at 20 ppm in the data set with Fusarium culmorum is ≥ 80%. For the same compound, the inhibition at 20 ppm in data set [6] was ≥ 80%.
